Test results as given in US7297817B2, “Thio-substituted arylmethanesulfinyl derivatives” (Cephalon France, priority 2004, dated 2007).

What was measured:
[1] = system: Wistar rats; assay: Evaluation of Wake Promoting Activity in Rats (EEG/EMG sleep/wake scoring); assay type: in vivo, rat; details: i.p. route, 100 mg/kg; for Mean AUC0–3h, test compound: first 3 hrs following dosing, n = 8 rats; for wakefulness compared to vehicle-treated animals: p<0.05 vs control groups
Method: The methodology utilized for evaluating wake promoting activity of test compounds is based on that described by Edgar and Seidel, Journal of Pharmacology and Experimental Therapeutics, 283:757-769, 1997, and incorporated herein in its entirety by reference.
Animal Surgery. Adult, male Wistar rats (275-320 g from Charles River Laboratories, Wilmington, Mass.) were anesthetized (Nembutal, 45 mg/kg, ip.) and surgically prepared with implants for recording of chronic EEG (encephalographic) and EMG (electromyographic) recording. The EEG implants were made from commercially available components (Plastics One, Roanoke, Va.). EEG signals were recorded from stainless steel screw electrodes: 2 frontal (+3.0 mm AP from bregma, ±2.0 mm ML), and 2 occipital (−4.0 mm AP from bregma, ±2.0 mm ML). Two Teflon-coated stainless steel wires were positioned under the nuchal trapezoid muscles for EMG recording. All electrode leads were inserted into a connector pedestal and the pedestal affixed to the skull by application dental acrylic. Antibiotic was administered post surgically and antibiotic cream was applied to the wound edges to prevent infection. At least one week elapsed between surgery and recording.
Recording environment. Postsurgically, rats were housed in pairs in an isolated room. Food and water were available ad libitum, ambient temperature was 21° C., and humidity was 55%. At least 24 hrs prior to recording, they were placed in Nalgene containers (31×31×31 cm) with a wire-grid top, and entry to the room was prohibited during the day of recording except for dosing. The containers were placed on a rack with two shelves, 4 containers per shelf. Fluorescent overhead room lights were set to a 24 hr. light/dark cycle (on at 7 AM, off at 7 PM). Light levels inside the containers were 38 and 25 lux for the top and bottom shelves respectively. Background white-noise (68 db inside the containers) was present in the room to mask ambient sounds.
Data acquisition. EEG and EMG signals were led via cables to a commutator (Plastics One) and then to pre-amplifiers (model 1700, A-M Systems, Carlsborg, Wash.). EEG and EMG signals were amplified (10K and 1K respectively) and bandpass filtered between 0.3 and 500 Hz for EEG and between 10 and 500 Hz for EMG. […] On the day of dosing, data was recorded for 6 to 10 hours beginning at 11 AM.
Drug administration and study design. Compounds were evaluated on groups of from 4 to 8 rats carried out over one or two separate test sessions. […]
Sleep/wake scoring. Sleep and wake activity were determined manually using ICELUS software. […]

NC(=O)C[S+]([O-])Cc1ccccc1NC(=O)c1ccc(Cl)cc1 (centres unmarked) [Example 113, N-(2-carbamoylmethanesulfinylmethyl-phenyl)-4-chloro-benzamide]
Mean AUC0–3h, test compound [1]: 99.0 % of waiking time × hr | wakefulness compared to vehicle-treated animals [1]: significantly greated wakefulness

NC(=O)C[S+]([O-])Cc1ccccc1COc1ccccc1 (centres unmarked)
melting point: 153 to 154 °C

CC(=O)N1CCN(C(=O)C[S+]([O-])Cc2ccc(Oc3ccc(Cl)c(Cl)c3)cc2)CC1 (centres unmarked) [Example 22, 1-(4-Acetyl-piperazin-1-yl)-2-[4-(3,4-dichloro-phenoxy)-phenylmethanesulfinyl]-ethanone]
Mean AUC0–3h, test compound [1]: 162.7 % of waiking time × hr | wakefulness compared to vehicle-treated animals [1]: significantly greated wakefulness
